Laboratory results from ChEMBL document CHEMBL3351790, “Inhibitory effects of p-alkylaminophenol on melanogenesis” (Bioorg Med Chem, 2014).
Blank lines part the entries; values can stand above or below the molecule they belong to. Activity calls are given as the source filed them. No cut-off for these calls is given here.

Assays:
Liver microsome = assay: Inhibition of lipid peroxidation in rat liver microsomes; format: functional
B16 [1] = assay: Inhibition of alpha-MSH-induced TRP-1 mRNA expression in mouse B16 cells at 1 uM after 3 days by RT-PCR analysis relative to control; format: functional; conditions: B16, 72 h
B16 [2] = assay: Inhibition of alpha-MSH-induced TRP-2 mRNA expression in mouse B16 cells at 0.1 to 1 uM after 3 days by RT-PCR analysis relative to control; format: functional, cell-based
B16 [3] = assay: Cytotoxicity against mouse B16 cells at 1 uM after 72 hrs by MTT assay; format: cell-based; conditions: b16, 72 h
B16 [4] = assay: Inhibition of alpha-MSH-induced melanin production in mouse B16 cells at 1 uM after 3 days by spectrophotometry relative to control; format: functional; conditions: B16, 72 h
B16 [5] = assay: Inhibition of alpha-MSH-induced ERK phosphorylation in mouse B16 cells at 0.4 uM after 3 days by Western blotting relative to control; format: cell-based
B16 [6] = assay: Inhibition of alpha-MSH-induced AKT phosphorylation in mouse B16 cells at 0.1 to 1 uM after 3 days by Western blotting relative to control; format: cell-based
B16 [7] = assay: Inhibition of alpha-MSH-induced TRP-1 protein expression in mouse B16 cells after 3 days by Western blotting relative to control; format: functional, cell-based
B16 [8] = assay: Inhibition of alpha-MSH-induced MITF mRNA expression in mouse B16 cells at 1 uM after 3 days by RT-PCR analysis relative to control; format: functional; conditions: B16, 72 h
B16 [9] = assay: Inhibition of alpha-MSH-induced ERK phosphorylation in mouse B16 cells at 1 uM after 3 days by Western blotting relative to control; format: cell-based
B16 [10] = assay: Inhibition of alpha-MSH-induced MITF protein expression in mouse B16 cells after 3 days by Western blotting relative to control; format: functional, cell-based
B16 [11] = assay: Inhibition of alpha-MSH-induced tyrosinase mRNA expression in mouse B16 cells at 0.1 to 1 uM after 3 days by RT-PCR analysis relative to control; format: functional, cell-based
B16 [12] = assay: Inhibition of alpha-MSH-induced TRP-2 protein expression in mouse B16 cells at 0.1 to 1 uM after 3 days by Western blotting relative to control; format: functional, cell-based
[13] = biological target: T1, Tyrosinase (Mus musculus) (UniProt P11344); assay: Inhibition of tyrosinase in mouse B16 cells using L-tyrosine as substrate preincubated at 50 uM for 20 mins by spectrophotometry relative to control; format: cell-based
T1 sequence (whole entry): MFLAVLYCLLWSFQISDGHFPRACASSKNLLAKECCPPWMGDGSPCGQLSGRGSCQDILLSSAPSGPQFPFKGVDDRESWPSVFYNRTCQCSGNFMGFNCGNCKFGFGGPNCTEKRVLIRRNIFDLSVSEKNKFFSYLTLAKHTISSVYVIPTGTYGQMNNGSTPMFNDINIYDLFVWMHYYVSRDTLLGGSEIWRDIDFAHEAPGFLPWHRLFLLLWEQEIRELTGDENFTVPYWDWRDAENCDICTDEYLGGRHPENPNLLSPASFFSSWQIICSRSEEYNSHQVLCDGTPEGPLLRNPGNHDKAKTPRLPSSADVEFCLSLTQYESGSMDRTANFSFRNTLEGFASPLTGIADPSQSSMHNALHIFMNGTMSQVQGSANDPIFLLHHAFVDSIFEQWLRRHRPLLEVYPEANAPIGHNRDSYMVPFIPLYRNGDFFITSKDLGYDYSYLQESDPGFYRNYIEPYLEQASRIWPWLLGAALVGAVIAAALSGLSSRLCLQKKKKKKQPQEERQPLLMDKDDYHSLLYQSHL

B16 [14] = assay: Inhibition of alpha-MSH-induced ERK phosphorylation in mouse B16 cells at 0.1 uM after 3 days by Western blotting relative to control; format: cell-based
B16 [15] = assay: Inhibition of alpha-MSH-induced tyrosinase protein expression in mouse B16 cells at 0.1 to 1 uM after 3 days by Western blotting relative to control; format: functional, cell-based
B16 [16] = assay: Inhibition of alpha-MSH-induced melanin production in mouse B16 cells at 0.1 to 0.4 uM after 3 days by spectrophotometry relative to control; format: functional, cell-based

SMILES: CCCCCCCCCCCCNc1ccc(O)cc1
IC50 (Liver microsome): 15.5 nM

SMILES: CC1=C(/C=C/C(C)=C/C=C/C(C)=C/C(=O)O)C(C)(C)CCC1 [TRETINOIN]
IC50 (Liver microsome): 3200 nM

SMILES: CCCCCCNc1ccc(O)cc1
IC50 (Liver microsome): 33 nM

SMILES: CCCCCCCCNc1ccc(O)cc1
IC50 (Liver microsome): 14 nM

More lines, main results first:

IC50 (Liver microsome): 15 nM
inhibition [13]: 7%
SMILES: CCCCCCCCCCNc1ccc(O)cc1
inhibition at 1 µM (B16 [1]): 50%
inhibition (B16 [2]): inactive
Activity (B16 [3]): Non-toxic
inhibition at 1 µM (B16 [4]): 34%
inhibition (B16 [5]): 75%
inhibition (B16 [6]): inactive
inhibition (B16 [7]): Dose-dependent effect
inhibition at 1 µM (B16 [8]): 68%
inhibition (B16 [9]): 88%
inhibition (B16 [10]): Dose-dependent effect
inhibition (B16 [11]): inactive
inhibition (B16 [12]): inactive
inhibition (B16 [14]): 22%
inhibition (B16 [15]): inactive
inhibition (B16 [16]): inactive

IC50 (Liver microsome): 5000 nM
SMILES: CC1=C(/C=C/C(C)=C/C=C/C(C)=C/C(=O)Nc2ccc(O)cc2)C(C)(C)CCC1 [FENRETINIDE]
